Source: patent US8846711B2, “Heterocyclic acrylamides and their use as pharmaceuticals” (Fab Pharma S.A.S., priority 2009, dated 2014)
≈ marks a conversion by molar mass, not a printed value. Like-named read-outs stand apart in the source and are kept apart here.

Key:
[1] = tested on: E. coli (ATCC 25922); test: MIC determination using susceptibility method (broth microdilution); format: cell-based; conditions: Escherichia coli
Description: (§1) Minimum inhibitory concentrations (MICs) were determined by broth microdilution according to CLSI guidelines (CLSI, M100-20^1, M7-A8^2, M27-A3^3). The compounds were tested in the range from […]. Colonies were taken directly from a second-pass culture plate and prepared to a suspension equivalent to the 0.5 McFarland standard using normal saline. […] The panels were incubated at 35° C. for 16 to 20 hours before reading the MIC endpoints. The compounds of Examples 12, 29, 59, 63 and 66-71 were dissolved in DMSO to make the initial solutions of 5120 μg/ml. These solutions were diluted 1:10 in sterile water to a stock solution of 512 μg/ml. The stock solutions were further diluted into the appropriate broth medium for the sequential dilutions used in the broth microdilution panels. S. pneumoniae was tested in Mueller Hinton (MH) broth with 3% lysed horse blood and C. albicans was tested in RPMI-1640 medium. All other organisms were tested in MH broth.

[2] = tested on: MSSA (IHMA #555189); test: as above; format: cell-based; conditions: Staphylococcus aureus, read-out: MIC (μg/ml) MSSA (IHMA #555189)
Description: as §1

[3] = tested on: S. pneumoniae (ATCC 49619); test: as above; format: cell-based; conditions: Streptococcus pneumoniae
Description: as §1

[4] = tested on: MRSA (IHMA #510059); test: as above; format: cell-based; conditions: Staphylococcus aureus, read-out: MIC (μg/ml) MRSA (IHMA #510059)
Description: as §1

[5] = tested on: C. albicans (ATCC 90028); test: as above; format: cell-based; conditions: Candida albicans
Description: as §1

[6] = tested on: S. aureus ATCC 29213; test: as above; format: cell-based; conditions: Staphylococcus aureus
Description: as §1

[7] = tested on: E. faecalis (ATCC 29212); test: as above; format: cell-based; conditions: Enterococcus faecalis
Description: as §1

[8] = target: human albumin (HSA) (Homo sapiens (Human), UniProt P02768); test: HSA binding analysis using a chiral HSA column; format: in vitro ADME; conditions: for HSA Binding (%): AB%=[k′/(k′+1)]*100, pH 7.0; for HSA Binding (%) / Conclusion (HSA binding class): chiral HSA column; for k′: capacity factor, k′=(Tr−T0)/T0; for Tr: retention time on chiral HSA column, pH 7.0, 37° C.; for affinity in vitro to human albumin: text summary of Table 7
Text: The test system used in this analysis was an HSA chiral column.
The relationship between the retention time (Tr) and percentage of albumin binding (AB %) depended on the dead time (TO) and the capacity factor (k′): AB%=[k′/(k′+1)]*100
HSA binding was classified as follows:
75%≦AB<90%: Moderate binding

[9] = ATCC25922, read-out: MIC (μg/ml) E. coli (ATCC 25922)
[10] = ATCC49619, read-out: MIC (μg/ml) S. pneumoniae (ATCC 49619)
[11] = ATCC90028, read-out: MIC (μg/ml) C. albicans (ATCC 90028)
[12] = ATCC29213, read-out: MIC (μg/ml) S. aureus ATCC 29213
[13] = ATCC29212, read-out: MIC (μg/ml) E. faecalis (ATCC 29212)
[14] = ATCC25922, Broth microdilution, MH broth, read-out: MIC (μg/ml) E. coli (ATCC 25922)
[15] = ATCC49619, Broth microdilution, MH broth with 3% lysed horse blood, read-out: MIC (μg/ml) S. pneumoniae (ATCC 49619)
[16] = ATCC90028, Broth microdilution, RPMI-1640 medium, read-out: MIC (μg/ml) C. albicans (ATCC 90028)
[17] = ATCC29213, Broth microdilution, MH broth, read-out: MIC (μg/ml) S. aureus ATCC 29213
[18] = ATCC29212, Broth microdilution, MH broth, read-out: MIC (μg/ml) E. faecalis (ATCC 29212)

human albumin (HSA), sequence (P02768 25-609): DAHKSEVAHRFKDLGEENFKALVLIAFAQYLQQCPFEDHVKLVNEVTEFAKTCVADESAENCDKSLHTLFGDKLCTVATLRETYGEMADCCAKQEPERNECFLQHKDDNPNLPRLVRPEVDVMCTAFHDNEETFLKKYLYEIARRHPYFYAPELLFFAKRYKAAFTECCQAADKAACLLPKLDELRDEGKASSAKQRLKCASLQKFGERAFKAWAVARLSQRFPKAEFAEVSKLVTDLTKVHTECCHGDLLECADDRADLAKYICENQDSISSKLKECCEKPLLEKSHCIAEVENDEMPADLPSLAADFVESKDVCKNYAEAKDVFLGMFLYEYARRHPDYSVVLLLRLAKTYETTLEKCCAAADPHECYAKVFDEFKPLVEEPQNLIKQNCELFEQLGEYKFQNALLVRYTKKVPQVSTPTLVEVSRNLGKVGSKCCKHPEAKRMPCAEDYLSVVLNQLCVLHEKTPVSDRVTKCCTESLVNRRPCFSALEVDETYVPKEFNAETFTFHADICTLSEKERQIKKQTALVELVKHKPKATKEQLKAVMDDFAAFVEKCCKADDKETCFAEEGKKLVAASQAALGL

Compound: O=C1CCc2cc(/C=C/C(=O)N3CC(c4cc5ccccc5o4)C3)cnc2N1 [Example 59, (E)-6-(3-(3-(Benzofuran-2-yl)azetidin-1-yl)-3-oxoprop-1-enyl)-3,4-dihydro-1,8-naphthyridin-2(1H)-one]
- MIC [1, 9]: 64 µg/mL (≈ 171 µM)
- MIC [2]: 0.06 µg/mL (≈ 0.161 µM)
- MIC [3, 10]: 32 µg/mL (≈ 85.7 µM)
- MIC [4]: 0.06 µg/mL (≈ 0.161 µM)
- MIC [5, 11]: 128 µg/mL (≈ 343 µM)
- MIC [6, 12]: 0.06 µg/mL (≈ 0.161 µM)
- MIC [7, 13]: 64 µg/mL (≈ 171 µM)
- HSA Binding (%) [8]: 82.4%
- k′ [8]: 4.678
- Conclusion (HSA binding class) [8]: Moderate
- Tr [8]: 4.378 min
- affinity in vitro to human albumin [8]: moderate affinity

Compound: O=C1CCc2cc(/C=C/C(=O)N3CC(OCCc4cccs4)C3)cnc2N1 [Example 29, (E)-6-(3-Oxo-3-(3-(2-(thiophen-2-yl)ethoxy)azetidin-1-yl)prop-1-enyl)-3,4-dihydro-1,8-naphthyridin-2(1H)-one]
- MIC [1, 9]: > 128 µg/mL
- MIC [2]: 0.5 µg/mL (≈ 1.3 µM)
- MIC [3, 10]: > 128 µg/mL
- MIC [4]: 0.5 µg/mL (≈ 1.3 µM)
- MIC [5, 11]: > 128 µg/mL
- MIC [6, 12]: 0.5 µg/mL (≈ 1.3 µM)
- MIC [7, 13]: > 128 µg/mL
- HSA Binding (%) [8]: 55.7%
- k′ [8]: 1.259
- Conclusion (HSA binding class) [8]: Low binding (AB<75%: Low binding)
- Tr [8]: 1.743 min
- affinity in vitro to human albumin [8]: low affinity

Compound: CN1CCC2(CC1)Cc1cc(/C=C/C(=O)N3CC(c4cc5ccccc5o4)C3)cnc1NC2=O [Example 69, (E)-6-(3-(3-(Benzofuran-2-yl)azetidin-1-yl)-3-oxoprop-1-en-1-yl)-1′-methyl-1H-spiro[[1,8]naphthyridine-3,4′-piperidin]-2(4H)-one]
- MIC [1, 9]: > 128 µg/mL
- MIC [2]: 1 µg/mL (≈ 2.19 µM)
- MIC [3, 10]: 128 µg/mL (≈ 280 µM)
- MIC [4]: 1 µg/mL (≈ 2.19 µM)
- MIC [5, 11]: > 128 µg/mL
- MIC [6, 12]: 1 µg/mL (≈ 2.19 µM)
- MIC [7, 13]: > 128 µg/mL
- HSA Binding (%) [8]: 88.5%
- k′ [8]: 7.730
- Conclusion (HSA binding class) [8]: Moderate
- Tr [8]: 6.734 min
- affinity in vitro to human albumin [8]: moderate affinity

Compound: Cc1c(C2CN(C(=O)/C=C/c3cnc4c(c3)CCC(=O)N4)C2)oc2ccccc12 [Example 67, (E)-6-(3-(3-(3-Methylbenzofuran-2-yl)azetidin-1-yl)-3-oxoprop-1-enyl)-3,4-dihydro-1,8-naphthyridin-2(1H)-one]
- MIC [1, 9]: > 128 µg/mL
- MIC [2]: 0.06 µg/mL (≈ 0.155 µM)
- MIC [3, 10]: 128 µg/mL (≈ 330 µM)
- MIC [4]: 0.06 µg/mL (≈ 0.155 µM)
- MIC [5, 11]: > 128 µg/mL
- MIC [6, 12]: 0.06 µg/mL (≈ 0.155 µM)
- MIC [7, 13]: > 128 µg/mL
- HSA Binding (%) [8]: 89.3%
- k′ [8]: 8.360
- Conclusion (HSA binding class) [8]: Moderate
- Tr [8]: 7.229 min
- affinity in vitro to human albumin [8]: moderate affinity

Compound: CCCCOC1CN(C(=O)/C=C/c2cnc3c(c2)CC2(CCN(C)CC2)C(=O)N3)C1 [Example 63, (E)-6-(3-(3-Butoxyazetidin-1-yl)-3-oxoprop-1-enyl)-1′-methyl-1H-spiro[[1,8]naphthyridine-3,4′-piperidin]-2(4H)-one]
- MIC [1, 9]: 64 µg/mL (≈ 155 µM)
- MIC [2]: 1 µg/mL (≈ 2.42 µM)
- MIC [3, 10]: 64 µg/mL (≈ 155 µM)
- MIC [4]: 1 µg/mL (≈ 2.42 µM)
- MIC [5, 11]: 128 µg/mL (≈ 310 µM)
- MIC [6, 12]: 1 µg/mL (≈ 2.42 µM)
- MIC [7, 13]: 64 µg/mL (≈ 155 µM)
- HSA Binding (%) [8]: 56.3%
- k′ [8]: 1.288
- Conclusion (HSA binding class) [8]: Low binding (AB<75%: Low binding)
- Tr [8]: 1.760 min
- affinity in vitro to human albumin [8]: low affinity

Compound: CCCO/N=C(/C)C1CN(C(=O)/C=C/c2cnc3c(c2)CCC(=O)N3)C1 [Example 71, 6-((E)-3-Oxo-3-(3-((Z)-1-(propoxyimino)ethyl)azetidin-1-yl)prop-1-enyl)-3,4-dihydro-1,8-naphthyridin-2(1H)-one]
- MIC [1, 14]: > 128 µg/mL
- MIC ([2]; Broth microdilution, MH broth): 8 µg/mL (≈ 22.4 µM)
- MIC [3, 15]: 128 µg/mL (≈ 359 µM)
- MIC ([4]; Broth microdilution, MH broth): 4 µg/mL (≈ 11.2 µM)
- MIC [5, 16]: > 128 µg/mL
- MIC [6, 17]: 4 µg/mL (≈ 11.2 µM)
- MIC [7, 18]: > 128 µg/mL
- HSA Binding (%) [8]: 28.8%
- k′ [8]: 0.404
- Conclusion (HSA binding class) [8]: Low binding (AB<75%: Low binding)
- Tr [8]: 1.084 min
- affinity in vitro to human albumin [8]: low affinity

Compound: CCCO/N=C(\C)C1CN(C(=O)/C=C/c2cnc3c(c2)CCC(=O)N3)C1 [Example 70, 6-((E)-3-Oxo-3-(3-((E)-1-(propoxyimino)ethyl)azetidin-1-yl)prop-1-enyl)-3,4-dihydro-1,8-naphthyridin-2(1H)-one]
- MIC [1, 14]: > 128 µg/mL
- MIC ([2]; Broth microdilution, MH broth): 0.5 µg/mL (≈ 1.4 µM)
- MIC [3, 15]: > 128 µg/mL
- MIC ([4]; Broth microdilution, MH broth): 0.5 µg/mL (≈ 1.4 µM)
- MIC [5, 16]: > 128 µg/mL
- MIC [6, 17]: 0.5 µg/mL (≈ 1.4 µM)
- MIC [7, 18]: > 128 µg/mL
- HSA Binding (%) [8]: 36.7%
- k′ [8]: 0.580
- Conclusion (HSA binding class) [8]: Low binding (AB<75%: Low binding)
- Tr [8]: 1.219 min
- affinity in vitro to human albumin [8]: low affinity

Compound: Cc1c(C2CN(C(=O)/C=C/c3cnc4c(c3)CC3(CCN(C)CC3)C(=O)N4)C2)oc2ccccc12 [Example 68, (E)-1′-Methyl-6-(3-(3-(3-methylbenzofuran-2-yl)azetidin-1-yl)-3-oxoprop-1-enyl)-1H-spiro[[1,8]naphthyridine-3,4′-piperidin]-2(4H)-one]
- MIC [1, 9]: > 128 µg/mL
- MIC [2]: 0.5 µg/mL (≈ 1.06 µM)
- MIC [3, 10]: 128 µg/mL (≈ 272 µM)
- MIC [4]: 0.5 µg/mL (≈ 1.06 µM)
- MIC [5, 11]: > 128 µg/mL
- MIC [6, 12]: 0.5 µg/mL (≈ 1.06 µM)
- MIC [7, 13]: > 128 µg/mL
- HSA Binding (%) [8]: 91.8%
- k′ [8]: 11.216
- Conclusion (HSA binding class) [8]: High binding (AB≧90%: High binding)
- Tr [8]: 9.414 min
- affinity in vitro to human albumin [8]: high affinity
